The assay addresses T1, Human Recombinant Matriptase 2 (Homo sapiens, UniProt Q8IU80).
T1 construct: purchased Enzo Life Sciences (an in-house preparation was also used) ALX-201-752-1
T1 sequence (Q8IU80 1-811): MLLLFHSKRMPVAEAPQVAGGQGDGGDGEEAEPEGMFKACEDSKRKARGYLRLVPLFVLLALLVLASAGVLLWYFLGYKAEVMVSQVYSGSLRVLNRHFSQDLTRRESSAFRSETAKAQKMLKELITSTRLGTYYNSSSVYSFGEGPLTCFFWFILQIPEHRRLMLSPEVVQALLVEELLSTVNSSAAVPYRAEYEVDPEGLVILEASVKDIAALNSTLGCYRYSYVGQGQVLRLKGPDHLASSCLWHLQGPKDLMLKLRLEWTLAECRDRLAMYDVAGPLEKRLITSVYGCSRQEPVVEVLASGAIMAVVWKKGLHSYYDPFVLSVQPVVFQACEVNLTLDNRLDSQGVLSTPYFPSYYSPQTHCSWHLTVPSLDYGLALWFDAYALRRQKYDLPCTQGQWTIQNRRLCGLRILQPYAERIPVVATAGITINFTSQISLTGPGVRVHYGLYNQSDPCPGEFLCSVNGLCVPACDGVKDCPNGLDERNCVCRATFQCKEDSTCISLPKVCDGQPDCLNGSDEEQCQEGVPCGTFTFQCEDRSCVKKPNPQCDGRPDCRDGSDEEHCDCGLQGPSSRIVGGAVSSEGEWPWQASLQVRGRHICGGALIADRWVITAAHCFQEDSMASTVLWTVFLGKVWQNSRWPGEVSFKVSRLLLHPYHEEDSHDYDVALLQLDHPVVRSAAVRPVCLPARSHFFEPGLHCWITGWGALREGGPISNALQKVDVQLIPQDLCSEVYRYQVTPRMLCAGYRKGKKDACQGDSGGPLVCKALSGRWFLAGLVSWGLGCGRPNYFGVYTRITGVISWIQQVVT
The experiment in a line: Matriptase 2 fluorescence based inhibition assay, Method B (50 mM TRIS pH 7.5, 150 mM NaCl, 0.01% gelatin). It is filed as biochemical. Conditions: 1 uM compound; for inhibition at 1 µM: read-out: Mar-2 % inhibition at 1 uM. The gist of the method: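 Commercial (7 nM) or in-house (15 nM) enzyme preincubated 30 min with compound at 25° C, then 100 μM Boc-Gln-Ala-Arg-AMC added; fluorescence (Ex 360/Em 480 nm) read at 60 min. 1% DMSO final. IC50 from variable-slope sigmoidal fit of % inhibition.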

Like-named read-outs stand apart in the source and are kept apart here.

Experimental findings from patent US12428415B2, “Matriptase 2 inhibitors and uses thereof” (Disc Medicine, Inc., priority 2018, dated 2025) are described below.

Take `N=C(N)c1ccc2cc(C(=O)NC3CCNCC3F)n(Cc3cccc4ccccc34)c2c1` (stereo not drawn) [Compound I-593]: the inhibition at 1 µM (Assay Used = B) was 75 to 100%. Still for that read-out and setting: with `CN1CCC(NC(=O)c2cc3ccc(C(=N)N)cc3n2Cc2cc(Oc3ncccn3)cc3ccccc23)CC1` [Compound I-594] the figure was 75 to 100%. Same read-out and setting: with `CC(C)COC(=O)NC(=N)c1ccc2cc(C(=O)O)n(Cc3cc(Oc4ncccn4)cc4ccccc34)c2c1` [Compound I-595] the figure was 25 to 50%.

As for `N=C(N)c1ccc2cc(C(=O)OCc3ccccc3)n(Cc3cc(Oc4ncccn4)cc4ccccc34)c2c1` [Compound I-596], the inhibition at 1 µM (Assay Used = B) was in the range of 25 to 50%. As for `N=C(N)c1ccc2cc(C(=O)OCCNC(N)=O)n(Cc3cccc4ccccc34)c2c1` [Compound I-597], the inhibition at 1 µM (Assay Used = B (Method B)) was in the range of 75 to 100%.

Take `CCOC(=O)c1cc2ccc(C(=N)N)cc2n1Cc1cc(Oc2ncccn2)cc2ccccc12` [Compound I-598, Ethyl 6-carbamimidoyl-1-((3-(pyrimidin-2-yloxy)naphthalen-1-yl)methyl)-1H-indole-2-carboxylate]: under “Assay Used = B (Method B)”, the inhibition at 1 µM lay in the range of 75 to 100%.

On to `N=C(N)c1ccc2cc(C(=O)N[C@H]3CC[C@H](N)CC3)n(Cc3cc(Oc4ccccn4)cc4ccccc34)c2c1` [Compound I-599], for which the inhibition at 1 µM (Assay Used = B (Method B)) was 75 to 100%. Same read-out and setting: with `N=C(N)c1ccc2cc(C(=O)NCCO)n(Cc3cccc4ccccc34)c2c1` [Compound I-600] the figure was 75 to 100%. Same read-out and setting: with `CCOC(=O)c1cc2ccc(C(=N)N)cc2n1Cc1cccc2ccccc12` [Compound I-601] the figure was 50 to 75%. For the compound `COC(=O)NCCOC(=O)c1cc2ccc(C(=N)N)cc2n1Cc1cccc2ccccc12` [Compound I-602], the inhibition at 1 µM (Assay Used = B (Method B)) was 50 to 75%. Same read-out and setting: the value for `CC(C)(C)OC(=O)Nc1cc2ccc(C(=N)N)cc2n1Cc1cc(S(=O)(=O)c2ccccc2)cc2ccccc12` [Compound I-603, tert-butyl (6-carbamimidoyl-1-((3-(phenylsulfonyl)naphthalen-1-yl)methyl)-1H-indol-2-yl)carbamate] was 25 to 50%; that for `N=C(N)c1ccc2cc(C(=O)NCC3(CN)CCCCC3)n(Cc3cccc4ccccc34)c2c1` [Compound I-604] was 75 to 100%. Still for that read-out and setting: the value for `NCc1ccc2cc(C(=O)N[C@H]3CC[C@H](N)CC3)n(Cc3cc(Oc4ncccn4)cc4ccccc34)c2c1` [Compound I-605] was 50 to 75%; that for `Cn1c(C(=O)O)c(Cc2cc(Oc3ccccc3)cc3ccccc23)c2cc(C(=N)N)ccc21` [Compound I-606] was 25 to 50%; that for `CCOC(=O)c1cc2ccc(C(=N)NC(=O)OCC(C)C)cc2n1Cc1cc(Oc2ncccn2)cc2ccccc12` [Compound I-607] was 0 to 25%. Take `N=C(N)c1ccc2cc(C(=O)N[C@H]3CC[C@H](N)CC3)n(Cc3cc(OS(=O)(=O)c4ccccc4)cc4ccccc34)c2c1` [Compound I-608]: the inhibition at 1 µM (Assay Used = B (Method B)) lay in the range of 75 to 100%.

Take `CNC(=O)c1cc2ccc(C(=N)N)cc2n1Cc1cccc2ccccc12` [Compound I-609]: under “Assay Used = B (Method B)”, the inhibition at 1 µM fell in the range of 50 to 75%. Same read-out and setting: the value for `N=C(N)c1ccc2cc(C(=O)O)n(Cc3cc(Oc4cccnn4)cc4ccccc34)c2c1` [Compound I-610] was 25 to 50%; that for `N=C(N)c1ccc2cc(C(=O)OCCO)n(Cc3cccc4ccccc34)c2c1` [Compound I-611] was 50 to 75%. Same read-out and setting: the value for `Cc1ccc(S(=O)(=O)Oc2cc(Cn3c(C(=O)N[C@H]4CC[C@H](N)CC4)cc4ccc(C(=N)N)cc43)c3ccccc3c2)cc1` [Compound I-614] was 75 to 100%; that for `N=C(N)c1ccc2cc(C(=O)N[C@H]3CC[C@H](N)CC3)n(Cc3cc(Oc4ccccc4F)cc4ccccc34)c2c1` [Compound I-615] was 75 to 100%. On the same count and under the same terms, with `CC1(O)CCC(OC(=O)c2cc3ccc(C(=N)N)cc3n2Cc2cc(Oc3ccccc3)cc3ccccc23)CC1` (stereo not drawn) [Compound I-617] the figure was 0 to 25%. Regarding `N=C(N)c1ccc2cc(C(=O)O)n(Cc3cc(Oc4ccncn4)cc4ccccc34)c2c1` [Compound I-618], where the note is “Assay Used = B (Method B)”, the inhibition at 1 µM is 50 to 75%. In the case of `N=C(N)c1ccc2c(CO)c(C(=O)N[C@H]3CC[C@H](N)CC3)n(Cc3cccc4ccccc34)c2c1` [Compound I-619], the “Mar-2 % inhibition at 1 uM” value (Assay Used = B (Method B)) is on record as “A (A represents 0%≤I≤25%)”. Consider `N=C(N)Nc1ccc2cc(C(=O)N[C@H]3CC[C@H](N)CC3)n(Cc3cccc4ccccc34)c2c1` [Compound I-620, N-((1r,4r)-4-aminocyclohexyl)-6-guanidino-1-(naphthalen-1-ylmethyl)-1H-indole-2-carboxamide], for which, where the note is “Assay Used = B (Method B)”, the inhibition at 1 µM is 0 to 25%. Still for that read-out and setting: the value for `N=C(N)c1ccc2cc(C(=O)O)n(Cc3cc(OS(=O)(=O)c4ccccc4)cc4ccccc34)c2c1` [Compound I-621] was 75 to 100%. Still for that read-out and setting: the value for `CC(C)COC(=O)NC(=N)c1ccc2cc(C(=O)O)n(Cc3cc(Oc4ccccc4)cc4ccccc34)c2c1` [Compound I-622] was 0 to 25%; that for `CS(=O)(=O)Oc1cc(Cn2c(C(=O)O)cc3ccc(C(=N)N)cc32)c2ccccc2c1` [Compound I-623] was 50 to 75%. Still for that read-out and setting: the value for `CN(C)C(=O)c1cc2ccc(C(=N)N)cc2n1Cc1cccc2ccccc12` [Compound I-624] was 25 to 50%; that for `N=C(N)c1ccc2cc(C(=O)O)n(Cc3cc(Oc4cnccn4)cc4ccccc34)c2c1` [Compound I-625] was 50 to 75%. As for `N=C(N)c1ccc2cc(C(=O)O)n(Cc3cc(Oc4cccnc4)cc4ccccc34)c2c1` [Compound I-626], for the setting “Assay Used = B (Method B)”, the inhibition at 1 µM lay within 25 to 50%. Regarding `CCOC(=O)c1cc2ccc(C(=N)NC(=O)OCC(C)C)cc2n1Cc1cc(Oc2ccccc2)cc2ccccc12` [Compound I-627], under “Assay Used = B (Method B)”, the inhibition at 1 µM is 0 to 25%. Still for that read-out and setting: the value for `N=C(N)c1ccc2cc(C(=O)O)n(Cc3cc(Oc4ccccn4)cc4ccccc34)c2c1` [Compound I-628] was 75 to 100%; that for `N=C(N)c1ccc2cc(C(=O)OCCN)n(Cc3cc(Oc4ccccc4)cc4ccccc34)c2c1` [Compound I-629] was 75 to 100%. Still for that read-out and setting: the value for `CCOC(=O)c1cc2ccc(/C(N)=N\O)cc2n1Cc1cc(Oc2ncccn2)cc2ccccc12` [Compound I-630, ethyl (Z)-6-(N′-hydroxycarbamimidoyl)-1-((3-(pyrimidin-2-yloxy)naphthalen-1-yl)methyl)-1H-indole-2-carboxylate] was 0 to 25%; that for `N=C(N)c1ccc2cc(C(=O)N[C@H]3CC[C@H](N)CC3)n(Cc3cc(Oc4ccsc4)cc4ccccc34)c2c1` [Compound I-631] was 75 to 100%; that for `N=C(N)c1ccc2cc(C(=O)O)n(Cc3cc(Oc4ccncc4)cc4ccccc34)c2c1` [Compound I-632] was 50 to 75%. The same measure, in the same setting: the value for `Cc1c(C(=O)N[C@H]2CC[C@H](N)CC2)n(Cc2cccc3ccccc23)c2cc(C(=N)N)ccc12` [Compound I-633] was 75 to 100%.

`N=C(N)c1ccc2cc(C(=O)NCCN)n(Cc3cc(Oc4ccccc4)cc4ccccc34)c2c1` [Compound I-634]: the inhibition at 1 µM (Assay Used = B (Method B)) lay in the range of 75 to 100%. On the same count and under the same terms, the value for `NCc1ccc2cc(C(=O)N[C@H]3CC[C@H](N)CC3)n(Cc3cc(Oc4ccccc4)cc4ccccc34)c2c1` [Compound I-635] was 50 to 75%. Still for that read-out and setting: with `NCc1ccc2cc(C(=O)N[C@H]3CC[C@H](N)CC3)n(Cc3cc(S(=O)(=O)c4ccccc4)cc4ccccc34)c2c1` [Compound I-636] the figure was 25 to 50%; with `Cn1c(C(=O)O)c(-c2ccc3ccccc3c2)c2cc(C(=N)N)ccc21` [Compound I-637], 0 to 25%.
